From patent US9751851B2, “Molecules and compositions that inhibit gram negative bacteria and their uses” (THE TRUSTEES OF PRINCETON UNIVERSITY, priority 2013, dated 2017)

Tests used:
P. aeruginosa PA14 [1] = assay: Growth of P. aeruginosa monitored by absorbance at 600 nm; assay type: cell-based
P. aeruginosa PA14 [2] = assay: Microfluidic flow cell clogging (time until clogging); assay type: cell-based; conditions: wild-type P. aeruginosa PA14, 100 μM mBTL
Experimental: Microfluidic Flow Cells. Methods. Overnight P. aeruginosa PA14 cultures were back-diluted 1:1000 into 800 mL of tryptone broth (1% tryptone in H2O) with or without 100 μM mBTL and grown to mid-logarithmic phase (OD600=0.5). These cultures were used to fill 100 mL reservoirs that fed into microfluidic flow channels via Tygon tubing with an inner diameter of 2.4 mm. Similar tubing connected the outlet of the microfluidic channel to a collection dish on an analytical balance controlled via LabVIEW. The elevation of the culture reservoir above the collection dish on the balance set the constant pressure difference that drove the flow through the microfluidic channel. The microfluidic channel is 200 μm wide, 90 μm high, and contains a sequence of 37 bends that mimic corners in porous materials. The weight of the effluent culture was measured as a function of time t with measurement intervals of 4 s, and the data were converted into a flow rate Q(t) via the equation
[formula] where Δt=30 s and the density is assumed to be that of water, 1 kg/L. To the resulting flow rate time series Q(t), the function
[formula] was fitted which yields the measurement of the time until clogging (corresponding to the time at which the flow rate declined to 50% of its baseline value Q0).

P. aeruginosa PA14 [3] = assay: C. elegans fast killing infection assay; assay type: in vivo
Experimental: Methods. C. elegans fast killing assays were conducted with 90 wild-type N2 worms for each condition (30 worms/replicate, 3 replicates performed). C. elegans were propagated on NGM plates prior to eggs being harvested from gravid adults using a standard bleaching protocol (30 mL 5% bleach, 15 mL 5 M KOH, 55 mL dH2O). Harvested eggs were placed on lawns of fresh E. coli HB101 and allowed to grow for 48 hr (to reach the L4 stage) at 20° C. prior to being moved to lawns of P. aeruginosa and placed at 25° C. on sorbitol, glucose, cholesterol plates. Nematodes were scored for survival every hr for 5 hr and again at 24 hr. The % living worms was calculated in triplicate for each time point. 50 μM mBTL or an equivalent volume of DMSO was added to plates and to the bacterial cultures during growth.

[4] = system: wild-type P. aeruginosa PA14; assay: microbe, parasite or virus in culture; assay type: cell-based
Outline: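 PA14 cultures diluted 1:1000, grown aerobically 17 h at 37° C with shaking with compound at 100 μM (end point) or 200 nM–200 μM (titration). Pyocyanin in filtered cell-free fluid read at 695 nm; efficacy 0% at WT level, 100% at medium background; IC50 from variable-slope sigmoidal fit.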

P. aeruginosa PA14 [5] = assay: Static culture biofilm thickness by confocal microscopy; assay type: cell-based
Experimental: Static culture. Methods. Overnight P. aeruginosa cultures were back-diluted 1:1000 into tryptone broth with 100 μM mBTL, or an equivalent concentration of DMSO, and grown to mid-logarithmic phase (OD600=0.5). A 96-well plate with glass bottom (Thermo Fisher), which was filled with 200 μL of tryptone broth containing 100 μM mBTL or DMSO, was then inoculated with 2 μL of the mid-logarithmic culture. The 96-well plates were incubated for 24 h, prior to adding 5 μM SYTO 9 nucleic acid stain (Invitrogen). Biofilm thickness was measured using confocal microscopy (Nikon).

meta-bromothiolactone [mBTL]
effect on P. aeruginosa PA14 growth (P. aeruginosa PA14 [1]): not affecting P. aeruginosa PA14 growth | clogging of microfluidic chambers (P. aeruginosa PA14 [2]): phenotype indistinguishable from the mutants | C. elegans death (P. aeruginosa PA14 [3]; lasR mutant P. aeruginosa PA14 treated with 50 μM mBTL): 50% | C. elegans death (P. aeruginosa PA14 [3]; wild-type P. aeruginosa PA14 treated with 50 μM mBTL): 23% | IC50 ([4]; WT P. aeruginosa PA14, 17 hr growth, titration, read-out: IC50 for inhibition of pyocyanin production): 8 µM | inhibition of pyocyanin production (in words) ([4]; wild-type P. aeruginosa PA14, end point assays at 100 μM): potent inhibition of pyocyanin | average biofilm height (P. aeruginosa PA14 [5]; lasR null strain, 100 μM mBTL (untreated 15.7+/−4.9)): 6.6+/−2.3 μm | average biofilm height (P. aeruginosa PA14 [5]; lasR, rhlR double null strain, 100 μM mBTL (untreated 11.9+/−5.5)): 16.2+/−5.9 μm | average biofilm height (P. aeruginosa PA14 [5]; rhlR null strain, 100 μM mBTL (untreated 25+/−10.6)): 22.1+/−7.5 μm | average biofilm height (P. aeruginosa PA14 [5]; wild-type, 100 μM mBTL, 24 h (untreated 27.5+/−11.5)): 10+/−4 μm
